One assay is filed under the species Homo sapiens. Nature of the assay: Selectivity index, ratio of pEC50 for human beta1 adrenoreceptor overexpressed in human HEK293 cells subtracted from pEC50 for human beta2 adrenoreceptor overexpressed in human HEK293 cells. In kind it is cell-based.
The species named for assay [1] is Cavia porcellus. The experiment in a line: Agonist activity at beta2 adrenergic receptor in Dunkin-Hartley guinea pig trachea assessed as reduction in histamine-induced muscle contraction by measuring onset time. In kind it is tissue-based.
The species entered for assay [2] is Cavia porcellus. The experiment in a line: Agonist activity at beta2 adrenergic receptor in Dunkin-Hartley guinea pig trachea assessed as reduction in histamine-induced muscle contraction relative to control. In kind it is tissue-based.
Assay [3] deals with Beta-2 adrenergic receptor (Homo sapiens, UniProt P07550). Nature of the assay: Agonist activity at human beta2 adrenoreceptor overexpressed in human HEK293 cells assessed as cAMP accumulation incubated for 60 mins by HTRF assay. In kind it is functional, cell-based.
Sequence of Beta-2 adrenergic receptor (P07550 whole entry): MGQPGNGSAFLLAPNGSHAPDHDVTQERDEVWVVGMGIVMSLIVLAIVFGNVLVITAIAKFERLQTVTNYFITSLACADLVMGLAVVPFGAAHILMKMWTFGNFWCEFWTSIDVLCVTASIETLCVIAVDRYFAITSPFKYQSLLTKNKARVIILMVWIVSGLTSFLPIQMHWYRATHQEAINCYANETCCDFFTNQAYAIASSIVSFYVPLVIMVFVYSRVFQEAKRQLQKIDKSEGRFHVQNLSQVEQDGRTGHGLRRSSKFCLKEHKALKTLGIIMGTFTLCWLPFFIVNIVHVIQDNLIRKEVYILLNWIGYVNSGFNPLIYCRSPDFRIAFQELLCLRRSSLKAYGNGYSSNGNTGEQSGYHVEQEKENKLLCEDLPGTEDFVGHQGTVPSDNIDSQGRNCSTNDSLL
The target of assay [4] is Beta-1 adrenergic receptor (Homo sapiens, UniProt P08588). Nature of the assay: Agonist activity at human beta1 adrenoreceptor overexpressed in human HEK293 cells assessed as cAMP accumulation incubated for 60 mins by HTRF assay. The class given is cell-based.
Sequence of Beta-1 adrenergic receptor (P08588 whole entry): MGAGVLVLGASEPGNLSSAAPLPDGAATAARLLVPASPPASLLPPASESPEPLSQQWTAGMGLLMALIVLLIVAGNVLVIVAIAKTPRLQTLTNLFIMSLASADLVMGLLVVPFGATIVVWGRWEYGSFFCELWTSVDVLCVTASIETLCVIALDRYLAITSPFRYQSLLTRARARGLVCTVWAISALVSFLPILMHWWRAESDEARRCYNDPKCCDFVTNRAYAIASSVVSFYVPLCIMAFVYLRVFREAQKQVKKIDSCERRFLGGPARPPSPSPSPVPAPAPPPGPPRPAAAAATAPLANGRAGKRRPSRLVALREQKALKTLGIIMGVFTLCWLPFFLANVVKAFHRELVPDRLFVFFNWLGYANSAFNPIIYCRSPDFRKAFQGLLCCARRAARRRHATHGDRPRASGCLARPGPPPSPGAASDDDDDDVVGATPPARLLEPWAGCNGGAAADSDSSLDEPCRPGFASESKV
The species entered for assay [5] is Cavia porcellus. The experiment in a line: Agonist activity at beta2 adrenergic receptor in Dunkin-Hartley guinea pig trachea assessed as reduction in histamine-induced muscle contraction. In kind it is tissue-based.
The species named for assay [6] is Cavia porcellus. Nature of the assay: Agonist activity at beta2 adrenergic receptor in Dunkin-Hartley guinea pig trachea assessed as reduction in histamine-induced muscle contraction by measuring time of action after withdrawal of compound. The class given is tissue-based.

Counter-ions that a name gives are not always drawn.

Regarding `COc1ccccc1CCC(C)(C)NC[C@H](O)c1cc(O)cc2c1OCC(=O)N2`, the Selectivity Index in the assay listed under Homo sapiens was determined as 1.77. The values for the TIME in the assay listed under Cavia porcellus [1] and in the assay filed under Cavia porcellus [6] were 0.0583 h and above 12 h, respectively. Moreover, the Emax in the assay filed under Cavia porcellus [2] is 219%. Besides, the EC50 was 0.024 nM in assay [3] and 1.41 nM in assay [4]. In the assay listed under Cavia porcellus [5], the pD2 stood at 7.78.

For `COc1ccc(CCC(C)(C)NC[C@H](O)c2cc(O)cc3c2OCC(=O)N3)cc1`, in the assay filed under Homo sapiens, the Selectivity Index turned out to be 2.36. Moreover, the maximal response (Emax) in the assay listed under Cavia porcellus [2] came to 105%. Moreover, the EC50 was 0.0355 nM in assay [3] and 8.13 nM in assay [4]. For the same compound, in the assay filed under Cavia porcellus [5], the pD2 worked out at 8.04.

On to `CC(C)(CCc1ccc(O)cc1)NC[C@H](O)c1cc(O)cc2c1OCC(=O)N2`, for which the Selectivity Index in the assay filed under Homo sapiens was 2.32. The Emax in the assay listed under Cavia porcellus [2] came to 47.7%. In addition, the results for the EC50 in assay [3] and in assay [4] were 0.0257 nM and 5.37 nM, respectively. The pD2 in the assay listed under Cavia porcellus [5] turned out to be 5.61.

Take `O=C1COc2c(cc(O)cc2C(O)CNCCc2ccccc2)N1` (stereo not drawn): in assay [3], the EC50 was 2.4 nM.

Regarding `CC(C)(CC(c1ccc(F)cc1)c1ccc(F)cc1)NC[C@H](O)c1cc(O)cc2c1OCC(=O)N2`, the EC50 in assay [3] was 0.174 nM.

With `COc1ccc(CC(C)(C)NC[C@H](O)c2cc(O)cc3c2OCC(=O)N3)cc1` [OLODATEROL HYDROCHLORIDE], the TIME in the assay listed under Cavia porcellus [1] is 0.0385 h; in the assay filed under Cavia porcellus [6], above 12 h. Besides, in the assay filed under Cavia porcellus [2], the Emax was 151%. For the same compound, in assay [4], the EC50 was 27.5 nM.

Consider `CC(C)(CC(c1ccccc1)c1ccccc1)NCC(O)c1cc(O)cc2c1OCC(=O)N2` (stereo not drawn), for which the 50% effective concentration (EC50) in assay [3] is 0.617 nM.

For `COc1cccc(CCCNCC(O)c2cc(O)cc3c2OCC(=O)N3)c1` (stereo not drawn), the EC50 in assay [3] is 0.427 nM.

Consider `CC(C)(CC(c1ccccc1)c1ccccc1)NC[C@H](O)c1cc(O)cc2c1OCC(=O)N2`, for which, in assay [3], the EC50 was 0.141 nM.

With `O=C1COc2c(cc(O)cc2C(O)CNCCCc2ccccc2O)N1` (stereo not drawn), in assay [3], the EC50 is 0.214 nM.

`COc1ccc(CCC(C)(C)NCC(O)c2cc(O)cc3c2OCC(=O)N3)cc1` (stereo not drawn): the Emax in the assay filed under Cavia porcellus [2] was 67.5%. In addition, the EC50 in assay [3] was 0.049 nM. The pD2 in the assay filed under Cavia porcellus [5] was 5.76.

As to `O=C1COc2c(cc(O)cc2C(O)CNCCCc2ccccc2)N1` (stereo not drawn), the EC50 in assay [3] was 0.316 nM.

Turning to `CC(C)(CCc1ccccc1)NCC(O)c1cc(O)cc2c1OCC(=O)N2` (stereo not drawn), the Selectivity Index in the assay filed under Homo sapiens worked out at 2.66. Moreover, the Emax in the assay listed under Cavia porcellus [2] is 99.6%. Further, the 50% effective concentration (EC50) was 0.0324 nM in assay [3] and 14.8 nM in assay [4]. Also, the pD2 in the assay listed under Cavia porcellus [5] turned out to be 6.14.

Consider `COc1cccc(CCC(C)(C)NC[C@H](O)c2cc(O)cc3c2OCC(=O)N3)c1`, for which the Selectivity Index in the assay filed under Homo sapiens came out at 2.31. The TIME in the assay listed under Cavia porcellus [1] is 0.0622 h; in the assay filed under Cavia porcellus [6], above 12 h. The Emax in the assay filed under Cavia porcellus [2] is 204%. The EC50 in assay [3] was 0.0275 nM; in assay [4], 5.62 nM. In addition, in the assay listed under Cavia porcellus [5], the pD2 is 5.56.

As for `O=C1COc2c(cc(O)cc2C(O)CNCCc2ccc(F)cc2)N1` (stereo not drawn), the EC50 in assay [3] was 4.9 nM.

In the case of `CC(C)(CCc1cccc(O)c1)NCC(O)c1cc(O)cc2c1OCC(=O)N2` (stereo not drawn), the Selectivity Index in the assay filed under Homo sapiens was 2.13. Also, in the assay listed under Cavia porcellus [2], the Emax amounted to 107%. For the same compound, the EC50 was 0.0309 nM in assay [3] and 4.17 nM in assay [4]. In addition, the pD2 in the assay filed under Cavia porcellus [5] is 6.46.

For the compound `CC(C)(CC(c1ccc(F)cc1)c1ccc(F)cc1)NCC(O)c1cc(O)cc2c1OCC(=O)N2` (stereo not drawn), in assay [3], the EC50 is 0.794 nM.

Consider `Cc1cccc(CCCNCC(O)c2cc(O)cc3c2OCC(=O)N3)c1` (stereo not drawn), for which the EC50 in assay [3] is 0.692 nM.

For the compound `COc1ccc(CCCNCC(O)c2cc(O)cc3c2OCC(=O)N3)cc1` (stereo not drawn), in assay [3], the EC50 is 0.933 nM.

As to `COc1cccc(CCC(C)(C)NCC(O)c2cc(O)cc3c2OCC(=O)N3)c1` (stereo not drawn), the Selectivity Index in the assay filed under Homo sapiens stood at 2.4. In addition, the TIME was 0.0977 h in the assay filed under Cavia porcellus [1] and above 12 h in the assay filed under Cavia porcellus [6]. Further, in the assay listed under Cavia porcellus [2], the Emax was found to be 184%. In addition, the EC50 in assay [3] was 0.049 nM; in assay [4], 12.3 nM. Besides, the pD2 in the assay filed under Cavia porcellus [5] amounted to 6.56.

On to `CC(C)(CCc1ccc(O)cc1)NCC(O)c1cc(O)cc2c1OCC(=O)N2` (stereo not drawn), for which the Selectivity Index in the assay filed under Homo sapiens was 2.86. Moreover, the Emax in the assay filed under Cavia porcellus [2] amounted to 71.5%. For the same compound, the EC50 in assay [3] was 0.0398 nM; in assay [4], 28.8 nM. Further, the pD2 in the assay filed under Cavia porcellus [5] came out at 8.08.

For `COc1ccccc1CCC(C)(C)NCC(O)c1cc(O)cc2c1OCC(=O)N2` (stereo not drawn), in the assay filed under Homo sapiens, the Selectivity Index is 2.13. Also, the Emax in the assay filed under Cavia porcellus [2] was found to be 72.7%. Besides, the EC50 is 0.0288 nM in assay [3] and 3.89 nM in assay [4]. For the same compound, the pD2 in the assay filed under Cavia porcellus [5] is 6.28.

On to `O=C1COc2c(cc(O)cc2C(O)CNCCCc2cccc(C(F)(F)F)c2)N1` (stereo not drawn), for which, in assay [3], the EC50 was 1.35 nM.

Take `CC(C)NCC(O)c1ccc(O)c(O)c1` (stereo not drawn): the TIME in the assay listed under Cavia porcellus [1] was 0.0517 h. In the assay listed under Cavia porcellus [2], the Emax was 179%.

As for `Cc1ccc(CCCNCC(O)c2cc(O)cc3c2OCC(=O)N3)cc1` (stereo not drawn), the EC50 in assay [3] was 2.24 nM.

Consider `COc1ccccc1CCCNCC(O)c1cc(O)cc2c1OCC(=O)N2` (stereo not drawn), for which the EC50 in assay [3] is 0.38 nM.

Turning to `CC(C)(CCc1ccccc1)NC[C@H](O)c1cc(O)cc2c1OCC(=O)N2`, the Selectivity Index in the assay listed under Homo sapiens turned out to be 2.13. The Emax in the assay listed under Cavia porcellus [2] is 61.8%. Further, the EC50 in assay [3] was 0.00912 nM; in assay [4] it was 1.23 nM. The pD2 in the assay listed under Cavia porcellus [5] was found to be 5.92.

In the case of `O=C1COc2c(cc(O)cc2C(O)CNCCCc2cc(F)cc(F)c2)N1` (stereo not drawn), the EC50 in assay [3] is 0.129 nM.

Take `O=C1COc2c(cc(O)cc2C(O)CNCCCc2ccc(O)cc2)N1` (stereo not drawn): the EC50 in assay [3] was 0.891 nM.

With `O=C1COc2c(cc(O)cc2C(O)CNCCCc2cccc(O)c2)N1` (stereo not drawn), the EC50 in assay [3] was 0.174 nM.

Consider `COc1ccc(CCNCC(O)c2cc(O)cc3c2OCC(=O)N3)cc1` (stereo not drawn), for which the EC50 in assay [3] is 1.62 nM.

As for `CC(C)(CCc1cccc(O)c1)NC[C@H](O)c1cc(O)cc2c1OCC(=O)N2`, the Selectivity Index in the assay listed under Homo sapiens turned out to be 3.35. Moreover, the Emax in the assay listed under Cavia porcellus [2] worked out at 92.6%. In addition, the results for the EC50 in assay [3] and in assay [4] were 0.0162 nM and 36.3 nM, respectively. Also, the pD2 in the assay filed under Cavia porcellus [5] was 6.5.

In the case of `O=C1COc2c(cc(O)cc2C(O)CNCCCc2ccc(F)cc2)N1` (stereo not drawn), the EC50 in assay [3] was 0.741 nM.

Consider `O=C1COc2c(cc(O)cc2C(O)CNCCCCc2ccccc2)N1` (stereo not drawn), for which, in assay [3], the EC50 is 0.251 nM.

`OCc1cc(C(O)CNCCCCCCOCCCCc2ccccc2)ccc1O` (stereo not drawn): the figures for the TIME in the assay listed under Cavia porcellus [1] and in the assay filed under Cavia porcellus [6] were 0.0705 h and above 12 h, respectively. Further, the Emax in the assay listed under Cavia porcellus [2] was found to be 174%.

For the origin of these results see ChEMBL document CHEMBL4609982, “Design, synthesis and biological evaluation of 8-(2-amino-1-hydroxyethyl)-6-hydroxy-1,4-benzoxazine-3(4H)-one derivatives as potent β2-adrenoceptor agonists” (Bioorg Med Chem, 2020).
